In publication PMC7716246 (ACS chemical neuroscience, 2020):
Read-outs that look alike come from different tables or passages of the source.

Experiments:
[1] = target: T1, Aβ42 peptide (Homo sapiens, UniProt P05067); assay: Inhibition of Aβ42 aggregation, TEM and native gel electrophoresis/Western blot; type: biochemical; conditions: 37 °C, 24 h; for Aβ42 aggregates observed by TEM: [Aβ42] = [M^2+] = [AMF] = 25 μM; for Aβ42 aggregates by native gel/Western blot: 25 μM
[2] = target: T2, Aβ42 fibrils (Homo sapiens, UniProt P05067); type: biochemical; conditions: 25 μM, 37 °C; for Disaggregation of Aβ42 aggregates (TEM, native gel/Western blot): 24 h then 24 h with AMF
T2 sequence (P05067 672-713 limits assumed): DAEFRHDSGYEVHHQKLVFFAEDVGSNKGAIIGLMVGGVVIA

[3] = target: Aβ fibrils (Aβ40) (Homo sapiens, UniProt P05067); assay: Thioflavin T; type: binding
Chain of Aβ fibrils (Aβ40) (P05067 672-711 limits assumed): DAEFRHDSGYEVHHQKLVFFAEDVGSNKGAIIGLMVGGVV

[4] = tested on: amyloid plaques; type: binding, 5xFAD transgenic mice; conditions: brain sections of 7 month old 5xFAD mice
[5] = target: T2, Aβ42 fibrils; assay: Disaggregation of preformed Aβ42 fibrils, ThT fluorescence; type: biochemical; conditions: in the absence and presence of Cu^2+; [Aβ] = [M^2+] = [AMF] = 25 μM, additional 24 h at 37 °C
[6] = pH 7.4; 2:1 Metal:AMF mixture, [M^2+]tot = 25 μM, [AMF]tot = 50 μM
[7] = Cu^2+-induced ascorbate consumption assay; type: biochemical; conditions: [Cu^2+] = 10 μM, [AMF] = 24 μM, [ascorbate] = 100 μM
[8] = UV-vis Cu^2+ binding and Job's plot analysis of AMF:Cu^2+ stoichiometry; type: physicochemical
[9] = 2:1 Metal:AMF mixture, [M^2+]tot = 25 μM, [AMF]tot = 50 μM
[10] = target: T1, Aβ42 peptide; assay: Inhibition of Aβ42 aggregation, ThT fluorescence; type: biochemical; conditions: in presence and absence of Cu^2+ or Zn^2+; [Aβ] = [M^2+] = [AMF] = 25 μM, 37 °C, 24 h

T1 sequence (P05067 672-713 limits assumed): as the sequence (P05067 672-713 limits assumed) above

Disaggregation of Aβ42 aggregates (TEM, native gel/Western blot) ([2]; Zn^2+-incubated Aβ42 amorphous aggregates): decreases to some extent | Ki [3]: 287 ± 20 nM | pZn (pM = −log[M]free) [6]: 8.15 | Break in Job's plot ([8]; AMF and Cu^2+ in EtOH-PBS (1:10)): 0.7 mole fraction of Cu | Cu bound per AMF (stoichiometry) ([8]; from Job's plot): at least 2 equiv | pCu (pM = −log[M]free) ([9]; pH 6.6): 9.62 | pCu (pM = −log[M]free) ([9]; pH 7.4): 10.44
Compound: O=c1cc(-c2ccc(O)c(-c3c(O)cc(O)c4c(=O)cc(-c5ccc(O)cc5)oc34)c2)oc2cc(O)cc(O)c12 [AMF, amentoflavone]
Aβ42 aggregates observed by TEM ([1]; in the absence and presence of Cu^2+): only small amorphous aggregates were observed | Aβ42 aggregates by native gel/Western blot ([1]; in the presence of Cu^2+): the amount of soluble Aβ42 oligomers is also reduced | Aβ42 aggregates by native gel/Western blot ([1]; in the presence of Zn^2+): a wide range of various-size aggregates is formed | Aβ42 aggregates observed by TEM ([1]; in the presence of Zn^2+): a range of amorphous and fibrillar aggregates is formed | Aβ42 aggregates by native gel/Western blot ([1]; no metal ions): dramatically reduces the amount of large Aβ42 aggregates | Disaggregation of Aβ42 aggregates (TEM, native gel/Western blot) ([2]; Cu^2+-incubated Aβ42 aggregates): reduction in the amount of both large aggregates and smaller Aβ42 oligomers | Disaggregation of Aβ42 fibrils (TEM, native gel/Western blot) ([2]; no metal ions, 24 h fibrilization then 24 h with AMF): disaggregates the Aβ42 fibrils efficiently | Fluorescence intensity of stained brain sections ([4]; 25 μM): strong fluorescent intensity | Pearson's correlation coefficient, colocalization with HJ3.4 immunofluorescence ([4]; [AMF] = [Cu^2+] = 25 μM, [HJ3.4] = 1 μg/mL): 0.65 | Disaggregation of preformed Aβ42 fibrils (ThT fluorescence) [5]: efficient at reducing the amount of Aβ42 fibrils | Effect on ascorbate consumption ([7]; AMF added to the Cu^2+-Aβ42-ascorbate solution, [Aβ42] = 12 μM): efficiently reduce the consumption of ascorbate | Effect on ascorbate consumption ([7]; premixed AMF-Cu^2+ complex, with monomeric Aβ42 12 μM): significant inhibition of the ascorbate consumption | Effect on Aβ42 fibrillization (ThT fluorescence) [10]: dramatically reduced the fibrillization of Aβ42
